Reference: patent EP2072513A1, “A cyano piperidinyl-phenil-oxazolidinone and use thereof” (Ferrer Internacional, S.A., priority 2007, dated 2009)
Converted amounts (≈) assume the structure as drawn. Where two headings read alike, the source gives them in different places.

Legend:
human MAO-B = molecular target: T1, human MAO-B (Homo sapiens, UniProt P27338); test: In vitro MAO-B enzymatic activity (kynuramine substrate, fluorescence); assay type: biochemical; settings: membranes from SF9 cells, kynuramine 30 µM, 37° 40 min
T1 construct: purchased Gentest, BD, USA; host or cells: SF9 insect cells (membranes)
T1 sequence (P27338 1-520): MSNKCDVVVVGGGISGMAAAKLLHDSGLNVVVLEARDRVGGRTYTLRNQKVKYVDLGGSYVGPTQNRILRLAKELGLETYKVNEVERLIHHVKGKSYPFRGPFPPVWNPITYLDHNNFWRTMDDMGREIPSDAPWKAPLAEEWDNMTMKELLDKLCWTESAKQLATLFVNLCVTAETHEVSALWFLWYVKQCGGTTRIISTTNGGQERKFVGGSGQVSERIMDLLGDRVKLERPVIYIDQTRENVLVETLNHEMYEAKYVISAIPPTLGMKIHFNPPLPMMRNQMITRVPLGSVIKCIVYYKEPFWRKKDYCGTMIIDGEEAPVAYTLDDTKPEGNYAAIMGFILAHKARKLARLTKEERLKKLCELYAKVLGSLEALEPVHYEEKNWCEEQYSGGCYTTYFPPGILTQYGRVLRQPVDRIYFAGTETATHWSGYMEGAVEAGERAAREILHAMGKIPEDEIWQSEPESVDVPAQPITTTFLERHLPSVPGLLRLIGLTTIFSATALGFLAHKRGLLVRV
Description: (§1) MAO-A and MAO-B enzymatic activities were measured using membranes obtained from SF9 cells expressing either human MAO-A or human MAO-B (Gentest, BD, USA). Assays were done in blank 96-well micro titter plates using kynuramine as substrate and measuring the formation of 4-hydroxyquinoline by fluorescence at 340 nm/465 nm. Briefly, membranes with MAO-A (0.006 mg/mL protein) and MAO-B (0.015 mg/mL protein) were incubated with kynuramine, 30 µM, at 37° for 40 min in the presence of the compound in a final volume of 200 µL. Reactions were stopped by adding NaOH 2N and the reaction product, 4-hydroxyquinoline, was determined by fluorometry using a Tecan Ultra reader.

[1] = tested on: B. fragilis ATCC 25285 A12; test: MIC, standard micro dilution method (NCCLS M7-A5); assay type: cell-based; settings: Bacteroides fragilis, ATCC25285; B. fragilis ATCC 25285 A12, anaerobic, Brucella Blood medium
[2] = tested on: S. aureus ATCC 43300 MR 214; test: MIC, standard micro dilution method (NCCLS M7-A5); assay type: cell-based; settings: Staphylococcus aureus, ATCC43300
[3] = tested on: S. pneumoniae ATCC 49619 PR 215; test: MIC, standard micro dilution method (NCCLS M7-A5); assay type: cell-based; settings: Streptococcus pneumoniae, ATCC49619
[4] = tested on: Moraxella catarrhalis HCl-78 259/339; test: MIC, standard micro dilution method (NCCLS M7-A5); assay type: cell-based; settings: HCL78259/339
E. faecium ATCC 10541 13 = test: MIC, standard micro dilution method (NCCLS M7-A5); assay type: cell-based; settings: Enterococcus faecium, ATCC10541
[5] = tested on: S. epidermidis ATCC 12228 MR 11; test: MIC, standard micro dilution method (NCCLS M7-A5); assay type: cell-based; settings: Staphylococcus epidermidis, ATCC12228
[6] = tested on: S. aureus ATCC 25923 MS 319; test: MIC, standard micro dilution method (NCCLS M7-A5); assay type: cell-based; settings: Staphylococcus aureus, ATCC25923
human MAO-A = molecular target: T2, human MAO-A (Homo sapiens, UniProt P21397); test: In vitro MAO-A enzymatic activity (kynuramine substrate, fluorescence); assay type: biochemical; settings: membranes from SF9 cells, kynuramine 30 µM, 37° 40 min
T2 construct: purchased Gentest, BD, USA; host or cells: SF9 insect cells (membranes)
T2 sequence (P21397 1-527): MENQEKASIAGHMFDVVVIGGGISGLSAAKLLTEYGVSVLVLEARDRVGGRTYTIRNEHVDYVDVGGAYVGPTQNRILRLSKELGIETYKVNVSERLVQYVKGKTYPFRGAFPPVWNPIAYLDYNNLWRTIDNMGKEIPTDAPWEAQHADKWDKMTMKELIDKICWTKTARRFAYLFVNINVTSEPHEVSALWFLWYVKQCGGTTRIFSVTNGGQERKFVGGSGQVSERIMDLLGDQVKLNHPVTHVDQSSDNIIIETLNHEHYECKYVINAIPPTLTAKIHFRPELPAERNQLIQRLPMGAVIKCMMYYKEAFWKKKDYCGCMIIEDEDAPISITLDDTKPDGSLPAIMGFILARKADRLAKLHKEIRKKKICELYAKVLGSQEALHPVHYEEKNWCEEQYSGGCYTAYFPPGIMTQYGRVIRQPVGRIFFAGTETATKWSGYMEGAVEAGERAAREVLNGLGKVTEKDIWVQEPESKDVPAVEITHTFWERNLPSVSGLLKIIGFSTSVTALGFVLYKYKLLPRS
Description: as §1

[7] = tested on: S. aureus clinical strain cfr methylase 432; test: MIC, standard micro dilution method (NCCLS M7-A5); assay type: cell-based; settings: Staphylococcus aureus; S. aureus clinical strain cfr methylase 432 (linezolid-resistant)
[8] = tested on: E. faecalis ATCC 29212 53; test: MIC, standard micro dilution method (NCCLS M7-A5); assay type: cell-based; settings: Enterococcus faecalis, ATCC29212
[9] = tested on: Moxarella, Pasteurella and Bacteroides spp.; settings: cited from earlier work
[10] = Equilibrium solubility of polymorphic forms in solvent systems; assay type: physicochemical
Description: Table 1: Equilibrium solubilities of polymorphic form B. Solubility studies were also performed for polymorphic form A. In Table 2 appear the data obtained. Table 2: Equilibrium solubilities of polymorphic form A.

[11] = Suspension equilibration experiments (relative stability of polymorphic forms); assay type: physicochemical; settings: at room temperature (17-30 °C)
Description: However, a mixture of polymorphic form A and B in water slowly converted into pure polymorphic form B as well. Similarly, a suspension containing a mixture of polymorphic forms B and C in ethanol converted into polymorphic form B after some time.

| Compound | Ki (human MAO-B) [µM] | MIC [1] [µg/mL] | MIC [2] [µg/mL] | MIC [3] [µg/mL] | MIC [4] [µg/mL] | MIC (E. faecium ATCC 10541 13) [µg/mL] | MIC [5] [µg/mL] | MIC [6] [µg/mL] | Ki (human MAO-A) [µM] | MIC [7] [µg/mL] | MIC [8] [µg/mL] | MICs [9] [µg/mL] | Solubility ([10]; Ethanol) [µg/mL] | Solubility ([10]; Ethyl acetate) [µg/mL] | Solubility ([10]; Water (Fluka 95305), pH 8.9) [µg/mL] | Solubility ([10]; water, pH 8.7, water, thermodynamic from solid, Water (Fluka 95305), pH 8.7, read-out: Solubility) [µg/mL] | relative stability of the polymorphic forms [11] | Solubility ([10]; water, pH 8.9, water, thermodynamic from solid, Water (Fluka 95305), pH 8.9, read-out: Solubility) [µg/mL] |
| --- | --- | --- | --- | --- | --- | --- | --- | --- | --- | --- | --- | --- | --- | --- | --- | --- | --- | --- |
| CC(=O)NC[C@H]1CN(c2ccc(N3CCC(C#N)CC3)c(F)c2)C(=O)O1 [Compound (Ia), (S)-N-{3-[4-(4-cyano-piperidin-1-yl)-3-fluoro-phenyl]-2-oxo-oxazolidin-5-ylmethyl}-acetamide] | 2.45 | 1 (≈ 2.77 µM) | 1 (≈ 2.77 µM) | 0.5 (≈ 1.39 µM) | 1 (≈ 2.77 µM) | 0.5 (≈ 1.39 µM) | 1 (≈ 2.77 µM) | 1 (≈ 2.77 µM) | 1.05 | 2 (≈ 5.55 µM) | 1 (≈ 2.77 µM) |  |  |  |  |  |  |  |
| CC(=O)NC[C@H]1CN(c2ccc(N3CCOCC3)c(F)c2)C(=O)O1 [Linezolid, N-[[(5S)-3-[3-fluoro-4-(4-morpholinyl)phenyl]-2-oxo-5-oxazolidinyl]methyl]acetamide, reference compound] |  | 2 (≈ 5.93 µM) | 1 (≈ 2.96 µM) | 1 (≈ 2.96 µM) | 2 (≈ 5.93 µM) | 1 (≈ 2.96 µM) | 1 (≈ 2.96 µM) | 1 (≈ 2.96 µM) | 6.96 | 16 to 32 (≈ 47.4 to 94.9 µM) | 0.5 (≈ 1.48 µM) | 2 to 8 |  |  |  |  |  |  |
| CC(=O)NC[C@H]1CN(c2ccc(N3CCC(C#N)CC3)c(F)c2)C(=O)O1 [polymorphic form A, (S)-N-{3-[4-(4-cyano-piperidin-1-yl)-3-fluoro-phenyl]-2-oxo-oxazolidin-5-ylmethyl}-acetamide] |  |  |  |  |  |  |  |  |  |  |  |  | 6300 to 7300 | 11800 to 15400 | 390 (≈ 1080 µM) | 400 (≈ 1110 µM) |  |  |
| CC(=O)NC[C@H]1CN(c2ccc(N3CCC(C#N)CC3)c(F)c2)C(=O)O1 [polymorphic form B, (S)-N-{3-[4-(4-cyano-piperidin-1-yl)-3-fluoro-phenyl]-2-oxo-oxazolidin-5-ylmethyl}-acetamide] |  |  |  |  |  |  |  |  |  |  |  |  | 2600 (≈ 7210 µM) | 2900 (≈ 8050 µM) |  |  | the most stable one | 240 (≈ 666 µM) |
